From paper PMC5234776, “Study of the Antimicrobial Activity of Tilapia Piscidin 3 (TP3) and TP4 and Their Effects on Immune Functions in Hybrid Tilapia (Oreochromis spp.)” (PLoS ONE, 2017)
Peptide text beside a SMILES is read from it.

Assays:
V. vulnificus [1] = assay: In vivo bactericidal activity, bacterial load in tilapia liver; set-up: species or system tilapia (Oreochromis spp.); settings: for V. vulnificus bacterial load in the liver versus infected untreated fish: 20, 30 or 40 μg/fish, co-, pre- or post-treatment, in words; for bacterial clearance of V. vulnificus from the tilapia: after 48 hours
Method: Three groups of fish were used for these experiments. The first group was first injected with V. vulnificus (2×10^5 CFU/fish) followed by TP3 or TP4 peptides (20, 30, or 40 μg/fish) 0.5 hours later. A second group was first injected with TP3 or TP4 peptides (20, 30, or 40 μg/fish) and then, 0.5 hours later, with V. vulnificus (2×10^5 CFU/fish). A third group of tilapia was simultaneously injected (co-treated) with V. vulnificus (2×10^5 CFU/fish) and TP3 or TP4 peptides (20, 30, or 40 μg/fish). Liver samples were obtained from each group of tilapia at 3, 6, 9, 12, 24, and 48 hours after the final treatment and the tissues were homogenized in TSB medium before being spread onto TCBS plates. We incubated the plates at 28°C for 12 hours and then counted the number of bacterial colonies.

V. vulnificus [2] = assay: Time-kill analysis; type: cell-based, Vibrio vulnificus; settings: for eradication of bacteria: 60 minutes of exposure at 2×MIC, in words; for time after which V. vulnificus CFUs recovered: peptide at 1xMIC
Method: We determined the MICs of TP3, TP4, kanamycin, and ampicillin against V. vulnificus using a broth microdilution method in accordance with NCCLS guidelines. To measure the killing efficiencies of TP3 and TP4 against V. vulnificus, we prepared TP3 or TP4 solutions at MIC concentrations of 0.5×, 1×, and 2× and these solutions with equal volumes of V. vulnificus (1×10^6 CFU/ml) to each well of a 96-well plate. The plates were incubated at 28°C for 0, 60, 120, 180, 360, 540, 720, or 1440 minutes, and after the incubation period, 50 μL of each bacterial solution were plated on a TCBS plate to obtain viable cell counts. Broth grown in the absence of peptides was used as a negative control. The results were determined using triplicate independent experiments.

V. vulnificus [3] = assay: Membrane perturbation, NPN uptake; type: cell-based, Vibrio vulnificus; settings: 1×10^6 CFU/ml, 30 minutes, 40 μmol/L NPN; kanamycin: slight increase only
Method: We used previously reported methods for the membrane perturbation assay. Briefly, a single colony of V. vulnificus was cultured in TSB medium for 480 minutes at 28°C, and the adjusted culture (1×10^6 CFU/ml) was aliquoted into different tubes with or without TP4 or TP3. After incubating the cells for 30 minutes, we added 40 μmol/L 1-N-phenylnaphthylamine (NPN) and continued to incubate the cells. Tubes containing PBS with NPN and bacterial cells with NPN served as controls. The NPN fluorescence intensity was detected using a fluorescence ELISA reader. All experiments were performed in triplicate, and the results are expressed as means with standard errors (SE).

V. vulnificus [4] = assay: Tilapia survival, co-treatment with V. vulnificus and peptide; type: in vivo, tilapia (Oreochromis spp.); settings: abdominal cavity, seven days
From the text: (§1) We obtained tilapia (Oreochromis spp.) from a commercial aquaculture company. The fish body lengths were 4.0±0.6 cm, and body weights were 3.1±0.3 g. The tilapia were maintained in a 2000 liter indoor aquarium at the Marine Research Station, Ilan, Taiwan. To study the efficacy with which TP3 and TP4 protect tilapia against V. vulnificus, we injected the bacteria into the abdominal cavities (peritoneum) of the tilapia using a syringe (29 Gx1/2, Terumo Medical, Elkton, MD, USA); control tilapia were injected with PBS-buffered saline. For the first trial in each group, we used 15 tilapia: (a) group 1 was injected with V. vulnificus (2×10^5 CFU/fish) only; (b) group 2 was injected with PBS only; and (c) group 3 was injected with bacterial cells (2×10^5 CFU/fish) combined with a mixture containing both TP3 and TP4 peptides (at 0.1, 1, 10, or 20 μg/fish) that had been incubated for 60 minutes at 28°C. Next, at 168 hours after the first injection, the tilapia that survived the first co-treatment were again injected with V. vulnificus (2×10^5 CFU/fish). For this second challenge, we chose tilapia with similar body weights and ages that had not been previously treated with V. vulnificus, TP3 or TP4 for the V. vulnificus-only group (control group), and we recorded the survival rate over seven days. For the third trial, each group contained 15 tilapia, each of which was injected with 20, 30, or 40 μg of TP3 or TP4 followed by V. vulnificus (2×10^5 CFU/fish) after 0.5, 1, or 2 hours. The survival rate was recorded after seven days. For the fourth trial, each group contained 15 tilapia, each of which was first injected with V. vulnificus (2×10^5 CFU/fish) and then with 20, 30, or 40 μg of TP3 or TP4 after 0.5, 1, or 2 hours; the survival rate was recorded over seven days. Each experimental group consisted of 15 fish per treatment and three replicates (triplicate groups of 15 fish per treatment). We performed multiple group comparisons by analysis of variance (ANOVA) using SPSS software, and pairwise comparisons of groups were performed using a t-test. Significant differences were indicated as *P<0.05 and **P<0.01.

V. vulnificus [5] = assay: Tilapia survival, re-challenge of co-treatment survivors with V. vulnificus; type: in vivo, tilapia (Oreochromis spp.); settings: survivors of 20 μg/fish co-treatment, followed seven days
From the text: as §1
The antimicrobial activities of TP3 and TP4 peptides were analyzed in tilapia infected with lethal amounts of bacteria. Different amounts of V. vulnificus were injected into the abdominal cavities of the fish, and survival rates were recorded as cumulative percentages (S1 Fig). To determine whether TP3 and TP4 had any toxic effects on the tilapia, we injected different doses of TP3 and TP4 (0.1, 1, 10, 20, 30, 40, or 50 μg/fish) into the abdominal cavity and recorded the cumulative survival percentage of the fish (S2 Fig). We also co-treated tilapia with different doses (0.1, 1, 10, 20 μg/fish) of TP3 or TP4 combined with 2x10^4 CFU of V. vulnificus to evaluate tilapia survival following treatment. […] After 14, 21, or 28 days following the first co-treatment with TP3, the tilapia that survived in the 20 μg/fish TP3 experimental group were injected with a second dose of 2x10^4 CFU of V. vulnificus, and the survival rates were measured for another seven days. […] In the co-treatment experiments, at 14, 21, or 28 days after the first co-treatment with TP4, the surviving tilapia in the 20 μg/fish TP4 experimental group received a second injection of 2x10^4 CFU of V. vulnificus, and the survival rates were measured for another seven days.

[6] = co-injection of V. vulnificus and peptide 0.1 μg/fish
[7] = co-injection of V. vulnificus and peptide 1 μg/fish
[8] = co-injection of V. vulnificus and peptide 10 μg/fish
[9] = co-injection of V. vulnificus and peptide 20 μg/fish

CC[C@H](C)[C@H](NC(=O)[C@H](C)NC(=O)[C@H](CCCCN)NC(=O)CNC(=O)[C@H](C)NC(=O)[C@H](CO)NC(=O)[C@H](Cc1ccccc1)NC(=O)[C@H](CC(C)C)NC(=O)CNC(=O)CNC(=O)[C@@H](NC(=O)[C@@H](NC(=O)[C@H](Cc1c[nH]cn1)NC(=O)[C@H](Cc1c[nH]cn1)NC(=O)[C@@H](NC(=O)[C@@H](N)Cc1ccccc1)[C@@H](C)CC)[C@@H](C)CC)[C@@H](C)CC)C(=O)N[C@@H](Cc1c[nH]cn1)C(=O)N[C@@H](CCCNC(=N)N)C(=O)N[C@@H](CC(C)C)C(=O)N[C@H](C(=O)N[C@@H](CCCNC(=N)N)C(=O)N[C@@H](CCCNC(=N)N)C(=O)N[C@@H](CCCNC(=N)N)C(=O)N[C@@H](CCCNC(=N)N)C(=O)N[C@@H](CCCNC(=N)N)C(=O)O)[C@@H](C)CC [TP4, tilapia piscidin 4] (H-FIHHIIGGLFSAGKAIHRLIRRRRR-OH)
V. vulnificus bacterial load in the liver versus infected untreated fish (V. vulnificus [1]): significantly reduced
bacterial clearance of V. vulnificus from the tilapia (V. vulnificus [1]): 100%
eradication of bacteria (V. vulnificus [2]): completely eradicated
time after which V. vulnificus CFUs recovered (V. vulnificus [2]): ~9 h
concentration that increased NPN fluorescence (V. vulnificus [3]): 8 µg/mL
survival rate (V. vulnificus [4]; [6]): 73.3%
survival rate (V. vulnificus [4]; [7]): 75%
survival rate (V. vulnificus [4]; [8]): 86%
survival rate (V. vulnificus [4]; [9]): 88.9%
survival rate after second injection of V. vulnificus (V. vulnificus [5]; re-challenged after 14 days): 17.8%
survival rate after second injection of V. vulnificus (V. vulnificus [5]; re-challenged after 21 days): 37.8%
survival rate after second injection of V. vulnificus (V. vulnificus [5]; re-challenged after 28 days): 42.2%

CC[C@H](C)[C@H](NC(=O)[C@H](CC(C)C)NC(=O)[C@H](CO)NC(=O)[C@H](Cc1c[nH]cn1)NC(=O)[C@@H](NC(=O)[C@H](Cc1c[nH]cn1)NC(=O)[C@H](CCCCN)NC(=O)CNC(=O)[C@@H](NC(=O)[C@H](CO)NC(=O)[C@H](Cc1ccccc1)NC(=O)[C@H](CC(C)C)NC(=O)CNC(=O)CNC(=O)[C@@H](NC(=O)[C@@H](NC(=O)[C@H](Cc1c[nH]cn1)NC(=O)[C@H](Cc1c[nH]cn1)NC(=O)[C@@H](NC(=O)[C@@H](N)Cc1ccccc1)[C@@H](C)CC)[C@@H](C)CC)[C@@H](C)CC)C(C)C)[C@@H](C)CC)C(=O)N[C@@H](Cc1c[nH]cn1)C(=O)NCC(=O)N[C@@H](Cc1c[nH]cn1)C(=O)O [TP3, tilapia piscidin 3] (H-FIHHIIGGLFSVGKHIHSLIHGH-OH)
V. vulnificus bacterial load in the liver versus infected untreated fish (V. vulnificus [1]): significantly lower
bacterial clearance of V. vulnificus from the tilapia (V. vulnificus [1]): 100%
eradication of bacteria (V. vulnificus [2]): completely eradicated
time after which V. vulnificus CFUs recovered (V. vulnificus [2]): approximately 6 hours
concentration that increased NPN fluorescence (V. vulnificus [3]): 60 µg/mL
survival rate (V. vulnificus [4]; [6]): 0%
survival rate (V. vulnificus [4]; [7]): 0%
survival rate (V. vulnificus [4]; [8]): 73.3%
survival rate (V. vulnificus [4]; [9]): 95.3%
survival rate after second injection of V. vulnificus (V. vulnificus [5]; re-challenged after 14 days): 17.8%
survival rate after second injection of V. vulnificus (V. vulnificus [5]; re-challenged after 21 days): 26.7%
survival rate after second injection of V. vulnificus (V. vulnificus [5]; re-challenged after 28 days): 35.6%
